Measured values from patent publication US20260356823A1, “SODIUM CHANNEL REGULATOR AND USE THEREOF” (SHANGHAI HUILUN PHARMACEUTICAL CO., LTD., priority 2022, published 2026).

Target: T1, human Nav1.8 (Homo sapiens, UniProt Q9Y5Y9)
T1 construct: expressed in transfected cells
Test: In vitro inhibition of Nav1.8, manual patch clamp on HEK293 cells stably expressing human Nav1.8
Assay type: cell-based
Details: HEK293, 100 nM, human Nav1.8, manual patch clamp, read-out: Inhibitory activity (inhibition/% at 100 nM concentration)
Procedure: Bioactivity Test 1: In Vitro Inhibition of Nav1.8 by the Compound
By using a manual patch clamp on HEK293 cells stably expressing human Nav1.8, currents on Nav1.8 before and after administration of the compound were compared after the currents on Nav1.8 were stable, to obtain the effect of the compound on the Nav1.8 channel.
The to-be-tested compound was dissolved in DMSO to prepare a 9 mM stock solution, which was taken and dissolved in extracellular fluid at a desired concentration on the day of testing. The extracellular fluid included the following ingredients (mM): NaCl, 137; KCl, 4; CaCl2, 1.8; MgCl2, 1; HEPES, 10; glucose, 10; and pH 7.4 (NaOH titration). All reagents were purchased from Sigma (St. Louis, MO).
The cells were clamped at −80 mV and depolarized with a sustained 10 ms square wave to 10 mV to obtain a current on Nav1.8. This process was repeated every 5 seconds. A maximum current caused by the square wave was detected. After the current is stable, the to-be-tested compound (dissolved in the extracellular fluid at the desired concentration) was perfused. After the current is stable, the strength of blocking Nav1.8 by the compound was calculated based on the currents before and after perfusion of the compound. pCLAMP 10 (Molecular Devices, Union City, CA) was used. That the current is stable means that the current changes over time within a limited range.

T1 sequence (Q9Y5Y9 whole entry): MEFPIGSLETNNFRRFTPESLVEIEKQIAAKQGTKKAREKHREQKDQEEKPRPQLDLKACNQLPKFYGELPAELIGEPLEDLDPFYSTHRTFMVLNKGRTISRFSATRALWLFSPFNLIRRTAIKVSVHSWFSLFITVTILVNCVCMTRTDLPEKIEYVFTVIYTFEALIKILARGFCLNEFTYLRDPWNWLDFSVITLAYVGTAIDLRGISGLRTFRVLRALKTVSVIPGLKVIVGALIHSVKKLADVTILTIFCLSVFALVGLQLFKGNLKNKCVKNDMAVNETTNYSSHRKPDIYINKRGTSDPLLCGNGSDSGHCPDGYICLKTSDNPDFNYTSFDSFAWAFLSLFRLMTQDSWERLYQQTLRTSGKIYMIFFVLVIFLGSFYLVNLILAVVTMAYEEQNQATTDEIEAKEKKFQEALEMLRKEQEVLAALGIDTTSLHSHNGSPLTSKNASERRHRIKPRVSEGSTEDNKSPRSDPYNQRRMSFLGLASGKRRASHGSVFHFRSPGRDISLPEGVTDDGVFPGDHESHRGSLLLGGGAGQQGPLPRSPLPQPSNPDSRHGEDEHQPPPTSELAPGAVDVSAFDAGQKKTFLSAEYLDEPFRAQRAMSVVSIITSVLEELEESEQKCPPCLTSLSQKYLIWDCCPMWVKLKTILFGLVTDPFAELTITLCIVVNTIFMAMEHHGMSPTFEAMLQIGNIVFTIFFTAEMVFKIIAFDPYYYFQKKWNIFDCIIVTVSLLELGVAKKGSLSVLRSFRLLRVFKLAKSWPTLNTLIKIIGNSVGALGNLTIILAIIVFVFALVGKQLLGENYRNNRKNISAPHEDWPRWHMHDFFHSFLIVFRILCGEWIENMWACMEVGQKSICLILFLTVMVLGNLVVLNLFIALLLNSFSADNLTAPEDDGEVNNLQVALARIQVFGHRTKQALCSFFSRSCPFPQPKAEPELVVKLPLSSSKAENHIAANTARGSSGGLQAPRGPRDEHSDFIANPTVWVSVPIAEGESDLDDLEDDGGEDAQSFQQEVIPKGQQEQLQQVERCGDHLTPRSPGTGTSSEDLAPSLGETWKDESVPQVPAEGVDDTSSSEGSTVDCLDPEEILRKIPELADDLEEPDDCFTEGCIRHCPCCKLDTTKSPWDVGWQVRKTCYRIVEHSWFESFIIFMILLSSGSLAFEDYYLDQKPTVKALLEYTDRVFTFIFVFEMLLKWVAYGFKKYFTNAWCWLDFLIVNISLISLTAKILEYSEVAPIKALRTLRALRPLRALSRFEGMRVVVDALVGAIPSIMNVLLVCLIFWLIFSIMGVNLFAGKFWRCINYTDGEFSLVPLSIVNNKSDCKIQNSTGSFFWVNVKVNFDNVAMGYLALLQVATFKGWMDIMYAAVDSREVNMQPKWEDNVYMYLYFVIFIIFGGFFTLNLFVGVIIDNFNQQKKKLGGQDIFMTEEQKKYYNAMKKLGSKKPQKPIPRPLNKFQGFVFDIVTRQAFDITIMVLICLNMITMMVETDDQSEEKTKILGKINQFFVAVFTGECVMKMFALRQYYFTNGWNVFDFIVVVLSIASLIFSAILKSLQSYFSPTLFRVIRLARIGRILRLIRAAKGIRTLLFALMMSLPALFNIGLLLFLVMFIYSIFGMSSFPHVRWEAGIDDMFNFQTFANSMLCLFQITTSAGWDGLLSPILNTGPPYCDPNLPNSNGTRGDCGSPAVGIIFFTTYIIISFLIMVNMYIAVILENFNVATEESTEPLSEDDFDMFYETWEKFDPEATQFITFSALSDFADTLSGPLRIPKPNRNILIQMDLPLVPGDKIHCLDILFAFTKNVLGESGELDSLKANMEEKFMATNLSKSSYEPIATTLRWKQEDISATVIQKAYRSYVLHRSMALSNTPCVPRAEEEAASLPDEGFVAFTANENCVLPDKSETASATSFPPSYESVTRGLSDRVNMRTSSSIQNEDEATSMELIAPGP

SMILES | inhibition at 0.1 µM [%]
COc1c([C@H]2[C@H](C(=O)Nc3ccc(C(N)=O)nc3)O[C@]3(C(F)(F)F)CC[C@]23C)ccc(F)c1F [Example 97, 5-((1S,3R,4S,5S)-4-(3,4-difluoro-2-methoxyphenyl)-5-methyl-1-(trifluoromethyl)-2-oxabicyclo[3.2.0]heptane-3-formylamino)pyridinecarboxamide] | ≥ 50
COc1c(C2C(C(=O)Nc3cc(F)c(C(N)=O)c(C(N)=O)c3)OC(C)(C(F)(F)F)C2C)ccc(F)c1F [Example 80, rel-5-((2R,3S,4S,5R)-3-(3,4-difluoro-2-methoxyphenyl)-4,5-dimethyl-5-(trifluoromethyl)tetrahydrofuran-2-carboxamide)-3-fluorophthalic amine] | ≥ 50
CNS(=O)(=O)c1cc(NC(=O)[C@@H]2O[C@]3(C(F)(F)F)CC[C@]3(C)[C@H]2c2ccc(F)c(F)c2OC)ccn1 (relative stereo) [Example 88, rel-(1R,3R,4S,5R)-4-(3,4-difluoro-2-methoxyphenyl)-5-methyl-N-(2-(N-methylsulfamoyl)pyridin-4-yl)-1-(trifluoromethyl)-2-oxabicyclo[3.2.0]heptane-3-carboxamide] | ≥ 50
COc1c([C@H]2[C@H](C(=O)Nc3ccnc(C(=O)N4CCCO4)c3)O[C@@](C)(C(F)(F)F)[C@H]2C)ccc(F)c1F (relative stereo) [Example 32, rel-(2R,3S,4S,5R)-3-(3,4-difluoro-2-methoxyphenyl)-4,5-dimethyl-N-[2-(tetrahydroisoxazol-2-ylcarbonyl)pyridin-4-yl]-5-(trifluoromethyl)tetrahydrofuran-2-carboxamide] | ≥ 50
CCNS(=O)(=O)c1cc(NC(=O)[C@@H]2O[C@@](C)(C(F)(F)F)[C@@H](C)[C@H]2c2ccc(F)c(F)c2OC)ccn1 (relative stereo) [Example 83, rel-(2R,3S,4S,5R)-3-(3,4-difluoro-2-methoxyphenyl)-N-(2-(N-ethylsulfamoyl)pyridin-4-yl)-4,5-dimethyl-5-(trifluoromethyl)tetrahydrofuran-2-carboxamide] | ≥ 50
COc1c([C@H]2[C@H](C(=O)Nc3ccc(C(N)=O)c(C(N)=O)c3)O[C@@](C)(C(F)(F)F)[C@H]2C)ccc(F)c1F (relative stereo) [Example 30, rel-(2R,3S,4S,5R)-4-({[3-(3,4-difluoro-2-methoxyphenyl)-4,5-dimethyl-5-(trifluoromethyl)tetrahydrofuran-2-yl]carbonyl}amino)benzene-1,2-dicarboxamide] | ≥ 50

The remaining lines, values ahead:

inhibition at 0.1 µM [%] | SMILES
≥ 50 | COc1c(C2C(C(=O)Nc3ccnc(OCC(O)CO)c3)OC3(C(F)(F)F)CCC23C)ccc(F)c1F [Example 95, rel-(1R,3R,4S,5R)-4-(3,4-difluoro-2-methoxyphenyl)-N-(2-(S)-2,3-dihydroxypropoxypyridin-4-yl)-5-methyl-1-trifluoromethyl-2-oxabicyclo[3.2.0]heptane-3-carboxamide]
< 50 | COc1c(C2C(C(=O)Nc3ccc(C(N)=O)c(C(N)=O)c3)OC(C)(C(F)(F)F)C2C)ccc(F)c1F (single isomer, unassigned) [Example 30-1]
≥ 50 | COc1c([C@H]2[C@H](C(=O)Nc3ccc(=O)[nH]n3)O[C@@](C)(C(F)(F)F)[C@H]2C)ccc(F)c1F (relative stereo) [Example 27, rel-(2R,3S,4S,5R)-3-(3,4-difluoro-2-methoxyphenyl)-4,5-dimethyl-N-(6-oxo-1H-1,2-dioxine-3-yl)-5-(trifluoromethyl)tetrahydrofuran-2-carboxamide]
≥ 50 | COc1c([C@H]2[C@H](C(=O)Nc3ccc4o[nH]c(=O)c4c3)O[C@@](C)(C(F)(F)F)[C@H]2C)ccc(F)c1F (relative stereo) [Example 5, rel-(2R,3S,4S,5R)-3-(3,4-difluoro-2-methoxyphenyl)-4,5-dimethyl-N-(3-oxo-2H-benzo[d]isoxazol-5-yl)-5-(trifluoromethyl)tetrahydrofuran-2-carboxamide]
